{
  "source": "ChEMBL document CHEMBL5137070",
  "about": "“N-2-(Phenylamino) Benzamide Derivatives as Dual Inhibitors of COX-2 and Topo I Deter Gastrointestinal Cancers via Targeting Inflammation and Tumor Progression” (J Med Chem, 2022)",
  "key": {"[1]": {"tested_on": "HGC-27", "assay": "Effect on cell morphology in human HGC-27 cells assessed as appearance of smaller cells at 10 uM incubated for 48 hrs by giemsa staining based microscopic analysis", "assay_type": "functional"}, "[2]": {"tested_on": "RKO", "assay": "Antiproliferative activity against human RKO cells assessed as reduction in cell proliferation incubated for 48 hrs by MTT assay", "assay_type": "functional, cell-based"}, "[3]": {"tested_on": "RAW264.7", "assay": "Antiinflammatory activity in mouse RAW264.7 cells assessed as reduction in LPS-induced COX-2 expression at 6.6 uM incubated for 1 hrs followed by LPS stimulation and measured after 24 hrs by western blot analysis", "assay_type": "functional, cell-based", "conditions": "time 25.0 hrs"}, "[4]": {"tested_on": "RKO", "assay": "Effect on cell morphology in human RKO cells assessed as appearance of round cells at 10 uM incubated for 48 hrs by giemsa staining based microscopic analysis", "assay_type": "functional"}, "[5]": {"tested_on": "RKO", "assay": "Induction of cell cycle arrest in human RKO cells assessed as accumulation at G2/M phase at 3.3 to 10 uM for 24 hrs by propidium iodide staining based flow cytometry", "assay_type": "functional", "conditions": "dose 3.3-10 µM"}, "[6]": {"tested_on": "HGC-27", "assay": "Effect on cell morphology in human HGC-27 cells assessed as appearance of round cells at 10 uM incubated for 48 hrs by giemsa staining based microscopic analysis", "assay_type": "functional"}, "[7]": {"tested_on": "HGC-27", "assay": "Effect on cell morphology in human HGC-27 cells assessed as condensed morphology at 10 uM incubated for 48 hrs by giemsa staining based microscopic analysis", "assay_type": "functional"}, "[8]": {"tested_on": "RKO", "assay": "Induction of apoptosis in human RKO cells at 1.1 to 10 uM for 24 hrs by Annexin V-FITC/PI staining based flow cytometry", "assay_type": "functional, cell-based", "conditions": "dose 1.1-10 µM"}, "[9]": {"tested_on": "RAW264.7", "assay": "Inhibition of LPS induced NO production in mouse RAW264.7 cells at 6.6 uM incubated for 1 hrs followed by LPS stimulation and measured after 24 hrs by Griess reagent based assay", "assay_type": "functional, cell-based", "conditions": "time 25.0 hrs"}, "[10]": {"tested_on": "CT26.WT", "assay": "Antiproliferative activity against mouse CT26.WT cells assessed as cell viability at 1.11 uM for 48 hrs by MTT assay", "assay_type": "functional", "conditions": "read-out: Activity"}, "[11]": {"tested_on": "HGC-27", "assay": "Antiproliferative activity against human HGC-27 cells assessed as clone formation at 0.37 to 3.3 uM incubated for 4 days by crystal violet staining based analysis", "assay_type": "functional, cell-based", "conditions": "dose 0.37-3.3 µM, time 4.0 day"}, "[12]": {"tested_on": "RKO", "assay": "Anti-migration activity against human RKO cells assessed as inhibition of cell migration at 0.37 uM and measured after 24 hrs by wound healing assay", "assay_type": "functional, cell-based"}, "[13]": {"tested_on": "SGC-7901", "assay": "Antiproliferative activity against human SGC-7901 cells assessed as reduction in cell proliferation incubated for 48 hrs by MTT assay", "assay_type": "functional, cell-based", "conditions": "SGC-7901, 48 h"}, "[14]": {"target": "T1, DNA topoisomerase 1 (Homo sapiens) (UniProt P11387)", "T1 sequence (whole entry)": "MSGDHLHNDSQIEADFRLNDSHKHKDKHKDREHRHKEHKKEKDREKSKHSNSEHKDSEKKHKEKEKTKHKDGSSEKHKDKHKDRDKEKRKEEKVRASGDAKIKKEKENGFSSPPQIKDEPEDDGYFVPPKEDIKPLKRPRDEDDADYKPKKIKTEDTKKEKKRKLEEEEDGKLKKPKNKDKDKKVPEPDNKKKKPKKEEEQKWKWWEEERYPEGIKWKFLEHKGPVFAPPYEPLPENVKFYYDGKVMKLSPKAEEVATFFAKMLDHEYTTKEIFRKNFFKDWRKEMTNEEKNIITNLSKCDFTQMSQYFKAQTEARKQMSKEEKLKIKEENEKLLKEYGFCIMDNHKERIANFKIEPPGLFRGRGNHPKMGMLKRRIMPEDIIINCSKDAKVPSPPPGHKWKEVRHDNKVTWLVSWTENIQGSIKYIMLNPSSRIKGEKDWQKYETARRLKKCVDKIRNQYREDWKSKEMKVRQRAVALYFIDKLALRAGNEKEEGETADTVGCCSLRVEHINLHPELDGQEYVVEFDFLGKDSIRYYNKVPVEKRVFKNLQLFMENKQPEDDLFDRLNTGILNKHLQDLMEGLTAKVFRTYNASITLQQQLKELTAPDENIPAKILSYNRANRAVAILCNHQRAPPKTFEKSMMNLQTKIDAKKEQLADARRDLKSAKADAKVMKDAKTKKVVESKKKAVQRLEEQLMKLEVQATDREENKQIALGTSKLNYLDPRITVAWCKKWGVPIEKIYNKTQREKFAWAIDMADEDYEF", "assay": "Inhibition of human topoisomerase I assessed as DNA unwinding using DNA pBR322 as substrate at 2 uM incubated for 30 mins by ethidium bromide staining based agarose gel electrophoresis"}, "[15]": {"tested_on": "RKO", "assay": "Antiproliferative activity against human RKO cells assessed as clone formation at 0.04 to 3.3 uM incubated for 4 days by crystal violet staining based analysis", "assay_type": "functional, cell-based", "conditions": "dose 0.04-3.3 µM, time 4.0 day"}, "[16]": {"tested_on": "RKO", "assay": "Induction of mitochondrial membrane loss in human RKO at 1.1 to 10 uM and measured after 36 hrs by TMRE dye based flow cytometry", "assay_type": "functional, cell-based", "conditions": "dose 1.1-10 µM, DDE = dose-dependent effect"}, "[17]": {"tested_on": "RKO", "assay": "Antiproliferative activity against human RKO cells assessed as cell viability at <= 0.41 uM for 48 hrs by MTT assay", "assay_type": "functional", "conditions": "up to 0.41 µM"}, "[18]": {"tested_on": "RKO", "assay": "Effect on cell morphology in human RKO cells assessed as condensed morphology at 10 uM incubated for 48 hrs by giemsa staining based microscopic analysis", "assay_type": "functional"}, "[19]": {"tested_on": "HGC-27", "assay": "Effect on cell morphology in human HGC-27 cells assessed as contracted nucleus at 10 uM incubated for 48 hrs by giemsa staining based microscopic analysis", "assay_type": "functional"}, "[20]": {"tested_on": "RKO", "assay": "Effect on cell morphology in human RKO cells assessed as appearance of smaller cells at 10 uM incubated for 48 hrs by giemsa staining based microscopic analysis", "assay_type": "functional"}, "[21]": {"tested_on": "RAW264.7", "assay": "Cytotoxicity against mouse RAW264.7 cells assessed as reduction in cell viability at <=11.11 for 24 hrs by MTT assay", "assay_type": "toxicity, cell-based", "conditions": "raw264.7, 24 h"}, "[22]": {"tested_on": "HGC-27", "assay": "Antiproliferative activity against human HGC-27 cells assessed as cell viability at <= 0.41 uM for 48 hrs by MTT assay", "assay_type": "functional", "conditions": "up to 0.41 µM"}, "[23]": {"target": "T2, DNA topoisomerase 1 (Homo sapiens, UniProt P11387)", "T2 sequence (P11387 whole entry)": "T1 sequence (whole entry)", "assay": "Inhibition of human topoisomerase I assessed as DNA relaxation using DNA pBR322 as substrate incubated for 30 mins by ethidium bromide staining based agarose gel electrophoresis"}, "[24]": {"tested_on": "HGC-27", "assay": "Induction of cell cycle arrest in human HGC-27 cells assessed as accumulation at G2/M phase at 3.3 to 10 uM for 24 hrs by propidium iodide staining based flow cytometry", "assay_type": "functional", "conditions": "dose 3.3-10 µM"}, "[25]": {"tested_on": "RKO", "assay": "Anti-migration activity against human RKO cells assessed as decrease in cell migration rate at 0.37 uM for 48 hrs by crystalline violet staining based assay", "assay_type": "functional"}, "[26]": {"tested_on": "HT-29", "assay": "Antiproliferative activity against human HT-29 cells assessed as reduction in cell proliferation incubated for 48 hrs by MTT assay", "assay_type": "functional, cell-based", "conditions": "HT-29, 48 h"}, "[27]": {"tested_on": "HGC-27", "assay": "Induction of apoptosis in human HGC-27 cells at 1.1 to 10 uM for 24 hrs by Annexin V-FITC/PI staining based flow cytometry", "assay_type": "functional, cell-based", "conditions": "dose 1.1-10 µM"}, "[28]": {"tested_on": "HGC-27", "assay": "Effect on cell morphology in human HGC-27 cells assessed as lose of adherence at 10 uM incubated for 48 hrs by giemsa staining based microscopic analysis", "assay_type": "functional"}, "[29]": {"tested_on": "CT26.WT", "assay": "Antiproliferative activity against mouse CT26.WT cells assessed as reduction in cell proliferation incubated for 48 hrs by MTT assay", "assay_type": "functional, cell-based"}, "[30]": {"tested_on": "RAW264.7", "assay": "Antiinflammatory activity against LPS-stimulated mouse RAW264.7 cells assessed decrease in IL-1beta release at 6.6 uM incubated for 1 hrs followed by LPS stimulation and measured after 24 hrs by ELISA relative to control", "assay_type": "functional, cell-based", "conditions": "time 25.0 hrs"}, "[31]": {"tested_on": "RKO", "assay": "Effect on cell morphology in human RKO cells assessed as lose of adherence at 10 uM incubated for 48 hrs by giemsa staining based microscopic analysis", "assay_type": "functional"}, "[32]": {"tested_on": "HGC-27", "assay": "Anti-migration activity against human HGC-27 cells assessed as decrease in cell migration rate at 0.37 uM for 48 hrs by crystalline violet staining based assay", "assay_type": "functional"}, "[33]": {"tested_on": "RKO", "assay": "Effect on cell morphology in human RKO cells assessed as contracted nucleus at 10 uM incubated for 48 hrs by giemsa staining based microscopic analysis", "assay_type": "functional"}, "[34]": {"tested_on": "HGC-27", "assay": "Antiproliferative activity against human HGC-27 cells assessed as reduction in cell proliferation incubated for 48 hrs by MTT assay", "assay_type": "functional, cell-based", "conditions": "HGC-27, 48 h"}, "[35]": {"tested_on": "HGC-27", "assay": "Induction of mitochondrial membrane loss in human HGC-27 at 1.1 to 10 uM and measured after 36 hrs by TMRE dye based flow cytometry", "assay_type": "functional, cell-based", "conditions": "dose 1.1-10 µM, DDE = dose-dependent effect"}},
  "note": "Activity calls are given as the source filed them. The calls are words filed in the database; no cut-off is given here.",
  "data": [
    {"molecule": "Cc1c(Cl)cccc1Nc1ccc(F)cc1C(=O)NCc1ccc(O)c(F)c1", "values": [
      {"measurement": "Activity", "setting": "[1]", "value": "Active"},
      {"measurement": "IC50", "setting": "[2]", "value": 6.74, "unit": "µM"},
      {"measurement": "Activity", "setting": "[3]", "value": "Active"},
      {"measurement": "Activity", "setting": "[4]", "value": "Active"},
      {"measurement": "Activity", "setting": "[5]", "value": "Active"},
      {"measurement": "Activity", "setting": "[6]", "value": "Active"},
      {"measurement": "Activity", "setting": "[7]", "value": "Active"},
      {"measurement": "Activity", "setting": "[8]", "value": "Active"},
      {"measurement": "inhibition", "setting": "[9]", "value": "Active"},
      {"measurement": "viability at 1.11 µM", "setting": "[10]", "value": "> 80", "unit": "%"},
      {"measurement": "Activity", "setting": "[11]", "value": "Active"},
      {"measurement": "Activity", "setting": "[12]", "value": "Active"},
      {"measurement": "IC50", "setting": "[13]", "value": 14.3, "unit": "µM"},
      {"measurement": "inhibition", "setting": "[14]", "value": 41.1, "unit": "%"},
      {"measurement": "Activity", "setting": "[15]", "value": "Active"},
      {"measurement": "Activity", "setting": "[16]", "value": "Dde"},
      {"measurement": "Activity", "setting": "[17]", "value": ">80", "unit": "%"},
      {"measurement": "Activity", "setting": "[18]", "value": "Active"},
      {"measurement": "Activity", "setting": "[19]", "value": "Active"},
      {"measurement": "Activity", "setting": "[20]", "value": "Active"},
      {"measurement": "Activity", "setting": "[21]", "value": "> 80", "unit": "%"},
      {"measurement": "Activity", "setting": "[22]", "value": ">80", "unit": "%"},
      {"measurement": "IC50", "setting": "[23]", "value": 4.79, "unit": "µM"},
      {"measurement": "Activity", "setting": "[24]", "value": "Active"},
      {"measurement": "Activity", "setting": "[25]", "value": "Active"},
      {"measurement": "IC50", "setting": "[26]", "value": 15.8, "unit": "µM"},
      {"measurement": "Activity", "setting": "[27]", "value": "Active"},
      {"measurement": "Activity", "setting": "[28]", "value": "Active"},
      {"measurement": "IC50", "setting": "[29]", "value": 8.88, "unit": "µM"},
      {"measurement": "Activity", "setting": "[30]", "value": "Active"},
      {"measurement": "Activity", "setting": "[31]", "value": "Active"},
      {"measurement": "Activity", "setting": "[32]", "value": "Active"},
      {"measurement": "Activity", "setting": "[33]", "value": "Active"},
      {"measurement": "IC50", "setting": "[34]", "value": 7.23, "unit": "µM"},
      {"measurement": "Activity", "setting": "[35]", "value": "Dde"}
    ]}
  ]
}
